Common to all, as to assay type: organism-based
What all share (design): scale not given: the % may be the effect or the level left

For data set [1], the system named is Solanum lycopersicum. Briefly: Phytotoxicity against Solanum lycopersicum (tomato) plant assessed as decrease in plant height at 150 mg/L applied 1 days prior to transplantation for 10 secs measured after 4 weeks relative to untreated-control. Particulars: in vivo, other.
Data set [2] concerns Solanum lycopersicum. Description: Phytotoxicity against Solanum lycopersicum (tomato) plant assessed as decrease in plant height at 200 mg/L applied 1 days prior to transplantation for 10 secs measured after 4 weeks relative to untreated-control. The settings on record: in vivo.
For data set [3], the system named is Solanum lycopersicum. Briefly: Phytotoxicity against Solanum lycopersicum (tomato) plant assessed as decrease in plant height at 100 mg/L applied 1 days prior to transplantation for 10 secs measured after 4 weeks relative to untreated-control. The settings on record: in vivo.
Data set [4] deals with Solanum lycopersicum. Description: Phytotoxicity against Solanum lycopersicum (tomato) plant assessed as decrease in plant height at 25 mg/L applied 1 days prior to transplantation for 10 secs measured after 4 weeks relative to untreated-control. Particulars: in vivo.
The test system of data set [5] is Solanum lycopersicum. Description: Phytotoxicity against Solanum lycopersicum (tomato) plant assessed as decrease in vigour at 150 to 200 mg/L applied 1 days prior to transplantation for 10 secs measured after 4 weeks relative to untreated-control. The settings on record: in vivo.
Data set [6] concerns Solanum lycopersicum. Briefly: Phytotoxicity against Solanum lycopersicum (tomato) plant assessed as decrease in vigour at 100 mg/L applied 1 days prior to transplantation for 10 secs measured after 4 weeks relative to untreated-control. The settings on record: in vivo.
Data set [7] concerns Solanum lycopersicum. Briefly: Phytotoxicity against Solanum lycopersicum (tomato) plant assessed as decrease in vigour at 50 mg/L applied 1 days prior to transplantation for 10 secs measured after 4 weeks relative to untreated-control. Particulars: in vivo.
Data set [8] has as its system Solanum lycopersicum. Description: Phytotoxicity against Solanum lycopersicum (tomato) plant assessed as decrease in vigour at 25 mg/L applied 1 days prior to transplantation for 10 secs measured after 4 weeks relative to untreated-control. The settings on record: in vivo.
The test system of data set [9] is Solanum lycopersicum. Briefly: Phytotoxicity against Solanum lycopersicum (tomato) plant assessed as decrease in vigour at 100 mg/L applied 1 days prior to transplantation for 10 secs measured after 2 weeks relative to untreated-control. The settings on record: in vivo.
In data set [10] the test system is Solanum lycopersicum. Description: Phytotoxicity against Solanum lycopersicum (tomato) plant assessed as decrease in vigour at 25 mg/L applied 1 days prior to transplantation for 10 secs measured after 2 weeks relative to untreated-control. The settings on record: in vivo.
Data set [11] has as its system Solanum lycopersicum. Description: Phytotoxicity against Solanum lycopersicum (tomato) plant assessed as decrease in marketable yeild at 150 mg/L applied 1 days prior to transplantation for 10 secs measured after 4 weeks relative to untreated-control. The settings on record: in vivo.
In data set [12] the test system is Solanum lycopersicum. Briefly: Phytotoxicity against Solanum lycopersicum (tomato) plant assessed as decrease in marketable yeild at 25 mg/L applied 1 days prior to transplantation for 10 secs measured after 4 weeks relative to untreated-control. Particulars: in vivo.

As to `O=C(O)CNCP(=O)(O)O` [GLYPHOSATE], the Activity is 72% with Solanum lycopersicum [1]; 75% in the data set on Solanum lycopersicum [2]; 65% with Solanum lycopersicum [3]; 29% in the data set with Solanum lycopersicum [4]; “<= 15%” with Solanum lycopersicum [5]; 58% in the data set on Solanum lycopersicum [6]. Besides, the Activity in the data set on Solanum lycopersicum [7] is recorded as 36%; with Solanum lycopersicum [8] it was 36%; with Solanum lycopersicum [9] it was “<= 50%”; with Solanum lycopersicum [10] it was 78%; in the data set with Solanum lycopersicum [11], more than 98%; with Solanum lycopersicum [12] it was 41%.

The values are drawn from ChEMBL document CHEMBL3045613, “Effects of sublethal glyphosate rates on fresh market tomato” (Crop Prot, 2007).
